Reference: patent US20110160266A1, “Novel Anti-Arrhythmia Agent” (THE UAB RESEARCH FOUNDATION, priority 2008, published 2011)
pIC50: −log10 of the molar value. Entries after “also recorded” stand apart in the source; their conditions may differ. Counter-ions that a name gives are not always drawn.

How the values were obtained:
rat left atria [1] = system: rat left atria
rat left atria [2] = assay: tissue or blood; conditions: 5 min, read-out: IC50 for suppression of triggered ectopic contractions induced by ATX II
rat left atria [3] = assay: Reversal or prevention of 2-APB-induced SMA in superfused rat left atria
Method: (A) Titration curve of ranolazine reversal of SMA in superfused left atrial appendage. Superfused appendages (n=7) were treated with 2-APB and following the appearance of SMA they were titrated with increasing concentrations of ranolazine for 3-5 min at any concentration. Rates of SMA in the absence of pacing were recorded. (B) Typical raw mechanical data for an appendage treated with 2-APB and then with 0, 10 or 80 μM ranolazine. All data are in the absence of pacing. […]
To test whether an anion transport inhibitor affected SMA, atria (n=7) were paced at 0.1 Hz in KH and exposed to 15 μM 2-APB. Following the appearance of SMA, they were titrated with 100 to 400 μM DIDS for 3 to 5 min at each concentration. Whether SMA occurred at the end of each titration period was recorded.
In these experiments, a 2-APB model system was used to simulate abnormal automaticity. Specifically, paced (0.1 Hz) superfused left atria were treated with 2-APB (20 μM) and the pacing stimulus was stopped after the appearance of SMA. SKF-96365 (25 μM) was then added to the superfusate and the effect on SMA was measured.
(§1) Additional experiments determined the concentration-dependence of SKF-96365 inhibtion of SMA. These experiments were performed as described above except that various concentrations of SKF-96365 were added to the left atrial superfusate (about 10-65 μM).
In these experiments, a 2-APB model system was used to simulate abnormal automaticity. Specifically, superfused left atria were exposed to 0 or to 50 μM SKF-96365 for 10 min. Following this pre-incubation, muscles were titrated with increasing concentrations of 2-APB (0-30 μM) and the rate of SMA was measured about 10 min later in the absence of pacing.

rat left atria [4] = assay: Chaotic, fibrillation-like activity in left atria at 37° C., paced at 6 Hz
Method: In this example, it was evaluated whether SKF-96365 could reverse chaotic, fibrillation-like activity. In these experiments, left atria were superfused at 37° C., paced at 6 Hz (a physiological rate under these conditions), exposed to 300 nM BayK 8644 to load calcium and then to 20 μM 2-APB to induce tachycardic activity.

rat left atria [5] = assay: Suppression of STA induced by 2-APB plus BayK 8644 or isoproterenol in left atria
Method: 3 Hz-paced left atria (n=9 per group) were superfused (i) in Krebs-Henseleit alone or (ii) they were treated with 20 μM 2-APB for 10 min, (iii) with 300 nM BayK 8644 for 10 min and with 20 μM 2-APB for 10 min, or (iv) they were treated with 300 nM BayK 8644 and 20 μM 2-APB for 10 min, then with 70 μM zatebradine (3-[3-[[2-(3,4-Dimethoxyphenyl)ethyl]methyl amino]propyl]-1,3,4,5-tetrahydro-7,8,-dimethoxy-2H-3-benzazepin-2-one hydrochloride) for 10 min (Baruscotti et al., 2005). Pacing was interrupted at these times and rates of SMA were recorded.
Left atria (n=9) were paced at 0.1 Hz, treated with 300 nM BayK 8644 for 5 min, then with 20 μM 2-APB for 10 min, and the pacing stimulus was stopped. These preparations then were incubated with six increasing concentrations of zatebradine (10-100 μM) for 3-5 min at each concentration, and rates of SMA were recorded. Untreated right atria (n=9) also were titrated with zatebradine and its effect on contraction frequency was recorded.
To test whether zatebradine affects left atrial force of contraction, two groups of left atria (n=9 per group) were paced at 3 Hz and treated with 300 nM BayK 8644. Five minutes later one group was incubated with six increasing concentrations of zatebradine (10-100 μM) for 3-5 min at each concentration, and forces of contraction were recorded. A second group was treated with BayK 8644 but not zatebradine, and forces of contraction were recorded at corresponding times.
To test whether zatebradine affects the SMA occurring in the presence of 2-APB and isoproterenol, left atria (n=7) were paced at 0.1 Hz, treated with 30 nM isoproterenol for 5 min, then with 20 μM 2-APB for 10 min, and the pacing stimulus was stopped. Rates of SMA were recorded, these left atria were exposed to 70 μM zatebradine for 10 min, and rates of SMA were recorded again. A group of right atria (n=7) also were exposed to 30 nM isoproterenol for 5 min and then to 70 μM zatebradine for 10 min. Right atrial contraction frequency was recorded at these two times.
To test whether ZD-7288, an If inhibitor structurally unrelated to zatebradine (Baruscotti et al., 2005; Sanders et al., 2006) affects the SMA occurring in the presence of 2-APB and BayK 8644, rat left atria (n=7) were treated with 300 nM BayK 8644 for 5 min, then with 20 μM 2-APB for 10 min, and the rates of ectopic activity were recorded. These atria then were incubated with six increasing concentrations of ZD-7288 (10-100 μM) for 3-5 min at each concentration, and the rates of SMA were recorded. Right atria (n=7) were titrated similarly with ZD-7288 (0-100 μM) and the change in their contraction frequency was recorded.
In these experiments, a 2-APB model system was used to simulate tachycardic abnormal automaticity. Specifically, superfused left atria were treated sequentially with 300 nM BayK 8644, an activator of voltage-dependent calcium entry, which loads myocytes with calcium, and then with 2-APB (20 μM) to activate the putative myocyte system for abnormal automaticity. […] SKF-96365 (10 μM) was added to the superfusate. SKF-96365 reversed STA in these left atria within 2-3 min and the muscle became quiescent in the absence of pacing (FIG. 34, “Rest”).
as §1, with “inhibition” for “inhibtion”, “STA.” for “SMA.”, “10-70” for “10-65”, “μM). Exposing left atria to various concentrations of SKF-96365 reversed STA (FIG. 35).” for “μM).”

## COc1ccc(CCCOC(Cn2ccnc2)c2ccc(OC)cc2)cc1 (stereo not drawn) [SKF-96365, 1-[β-(3-(4-Methoxyphenyl)propoxy)-4-methoxyphenethyl]-1H-imidazole hydrochloride]
Rat left atria [1]; 25 nM ATX II, 20 μM SKF-96365 for ~5 min, 1 Hz pacing, hydrochloride
  triggered activity after exposure to SKF-96365: shows no triggered activity; also recorded: shows no triggered events; also recorded: suppresses triggered activity
Rat left atria [1]; 25 nM ATX II, 1 Hz-paced, ~5 min at each concentration, hydrochloride
  effect on left atrial force of contraction / mechanical performance (titration): did not decrease the mechanical performance; also recorded: did not affect left atrial force of contraction
Rat left atria [1]; SKF-96365 20 μM (legend 20-25 μM) for ~10 min before 25 nM ATX II, recorded over 10-15 min, hydrochloride
  prevention of triggered activity by pre-treatment: prevents the appearance of triggered activity; also recorded: triggered activity does not occur
Rat left atria [1]; SKF-96365 added to superfusate of left atria undergoing ATX II triggered activity
  time to reversal of triggered activity: 2 to 5 min
Rat left atria [2]
  pIC50: ~4.92
Rat left atria [3]; 25 μM SKF-96365, 0.1 Hz pacing restored after SMA suppression
  effect on normal excitation-contraction coupling: did not affect normal excitation-contraction coupling
Rat left atria [3]; 25 μM SKF-96365, 2-APB-treated left atria, absence of pacing
  time to suppression of SMA: 2 to 3 min
Rat left atria [3]; 50 μM SKF-96365 for 10 min, then 2-APB 0-30 μM, measured ~10 min later without pacing, hydrochloride
  prevention of SMA by pre-treatment: prevents the appearance of SMA
Rat left atria [3]; Rattus norvegicus, read-out: IC50 for inhibition (reversal) of SMA
  pIC50: ~4.82
Rat left atria [3]; titration after appearance of SMA, absence of pacing
  effect on 2-APB-induced sporadic ectopic activity (SMA): suppressed SMA
Rat left atria [3]; various concentrations of SKF-96365 (about 10-65 μM)
  time to suppression of SMA: 2 to 3 min
Rat left atria [4]; ~40 μM SKF-96365, 300 nM BayK 8644 + 20 μM 2-APB
  time to restoration of normal patterns of excitation-contraction: 5 to 8 min
Rat left atria [4]; ~40 μM SKF-96365, hydrochloride
  effect on chaotic, fibrillation-like mechanical activity: restores normal patterns of excitation-contraction; also recorded: no longer contracted chaotically
Rat left atria [5]; 300 nM BayK 8644 + 20 μM 2-APB, SKF-96365 (10 μM), absence of pacing
  time to reversal of STA: 2 to 3 min
Rat left atria [5]; 300 nM BayK 8644 + 20 μM 2-APB, zatebradine 70 μM, ZD-7288 10-100 μM, SKF-96365 about 10-70 μM, hydrochloride
  effect on STA initiated by BayK 8644 and 2-APB: reverses STA
Rat left atria [5]; after STA reversal, 0.1 Hz pacing restored
  effect on normal excitation-contraction coupling: did not affect normal excitation-contraction coupling
